Measured values from patent US8697739B2, “Bicyclic acetyl-CoA carboxylase inhibitors and uses thereof” (Novartis AG, priority 2010, dated 2014).

Biological target: T1, human acetyl-CoA carboxylase 2 (ACC2) (Homo sapiens, UniProt O00763)
T1 construct: The cDNA encoding amino acids 144 to 2458 of human acetyl-CoA carboxylase 2; made in house; host or cells: Sf9 insect cells (baculovirus, pFastBac1)
Assay: Acetyl-CoA carboxylase enzyme assay (malonyl-CoA formation by LC/MS/MS)
Type: biochemical
Conditions: recombinant human ACC2 (aa 144-2458); read-out: IC50 ACC2
Summary of the method: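 Malonyl-CoA formation was read by LC/MS/MS MRM against a [13C3]-malonyl-CoA internal standard, after acetic acid quench. The enzyme was baculovirus/Sf9-expressed human ACC2 residues 144–2458, given 15 minutes room-temperature compound preincubation in HEPES pH 7.5 buffer with MgCl2, citrate and DTT. Substrate solution held 50 μM acetyl-CoA, 120 μM ATP and 2 mM KHCO3.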

T1 sequence (O00763 144-2458): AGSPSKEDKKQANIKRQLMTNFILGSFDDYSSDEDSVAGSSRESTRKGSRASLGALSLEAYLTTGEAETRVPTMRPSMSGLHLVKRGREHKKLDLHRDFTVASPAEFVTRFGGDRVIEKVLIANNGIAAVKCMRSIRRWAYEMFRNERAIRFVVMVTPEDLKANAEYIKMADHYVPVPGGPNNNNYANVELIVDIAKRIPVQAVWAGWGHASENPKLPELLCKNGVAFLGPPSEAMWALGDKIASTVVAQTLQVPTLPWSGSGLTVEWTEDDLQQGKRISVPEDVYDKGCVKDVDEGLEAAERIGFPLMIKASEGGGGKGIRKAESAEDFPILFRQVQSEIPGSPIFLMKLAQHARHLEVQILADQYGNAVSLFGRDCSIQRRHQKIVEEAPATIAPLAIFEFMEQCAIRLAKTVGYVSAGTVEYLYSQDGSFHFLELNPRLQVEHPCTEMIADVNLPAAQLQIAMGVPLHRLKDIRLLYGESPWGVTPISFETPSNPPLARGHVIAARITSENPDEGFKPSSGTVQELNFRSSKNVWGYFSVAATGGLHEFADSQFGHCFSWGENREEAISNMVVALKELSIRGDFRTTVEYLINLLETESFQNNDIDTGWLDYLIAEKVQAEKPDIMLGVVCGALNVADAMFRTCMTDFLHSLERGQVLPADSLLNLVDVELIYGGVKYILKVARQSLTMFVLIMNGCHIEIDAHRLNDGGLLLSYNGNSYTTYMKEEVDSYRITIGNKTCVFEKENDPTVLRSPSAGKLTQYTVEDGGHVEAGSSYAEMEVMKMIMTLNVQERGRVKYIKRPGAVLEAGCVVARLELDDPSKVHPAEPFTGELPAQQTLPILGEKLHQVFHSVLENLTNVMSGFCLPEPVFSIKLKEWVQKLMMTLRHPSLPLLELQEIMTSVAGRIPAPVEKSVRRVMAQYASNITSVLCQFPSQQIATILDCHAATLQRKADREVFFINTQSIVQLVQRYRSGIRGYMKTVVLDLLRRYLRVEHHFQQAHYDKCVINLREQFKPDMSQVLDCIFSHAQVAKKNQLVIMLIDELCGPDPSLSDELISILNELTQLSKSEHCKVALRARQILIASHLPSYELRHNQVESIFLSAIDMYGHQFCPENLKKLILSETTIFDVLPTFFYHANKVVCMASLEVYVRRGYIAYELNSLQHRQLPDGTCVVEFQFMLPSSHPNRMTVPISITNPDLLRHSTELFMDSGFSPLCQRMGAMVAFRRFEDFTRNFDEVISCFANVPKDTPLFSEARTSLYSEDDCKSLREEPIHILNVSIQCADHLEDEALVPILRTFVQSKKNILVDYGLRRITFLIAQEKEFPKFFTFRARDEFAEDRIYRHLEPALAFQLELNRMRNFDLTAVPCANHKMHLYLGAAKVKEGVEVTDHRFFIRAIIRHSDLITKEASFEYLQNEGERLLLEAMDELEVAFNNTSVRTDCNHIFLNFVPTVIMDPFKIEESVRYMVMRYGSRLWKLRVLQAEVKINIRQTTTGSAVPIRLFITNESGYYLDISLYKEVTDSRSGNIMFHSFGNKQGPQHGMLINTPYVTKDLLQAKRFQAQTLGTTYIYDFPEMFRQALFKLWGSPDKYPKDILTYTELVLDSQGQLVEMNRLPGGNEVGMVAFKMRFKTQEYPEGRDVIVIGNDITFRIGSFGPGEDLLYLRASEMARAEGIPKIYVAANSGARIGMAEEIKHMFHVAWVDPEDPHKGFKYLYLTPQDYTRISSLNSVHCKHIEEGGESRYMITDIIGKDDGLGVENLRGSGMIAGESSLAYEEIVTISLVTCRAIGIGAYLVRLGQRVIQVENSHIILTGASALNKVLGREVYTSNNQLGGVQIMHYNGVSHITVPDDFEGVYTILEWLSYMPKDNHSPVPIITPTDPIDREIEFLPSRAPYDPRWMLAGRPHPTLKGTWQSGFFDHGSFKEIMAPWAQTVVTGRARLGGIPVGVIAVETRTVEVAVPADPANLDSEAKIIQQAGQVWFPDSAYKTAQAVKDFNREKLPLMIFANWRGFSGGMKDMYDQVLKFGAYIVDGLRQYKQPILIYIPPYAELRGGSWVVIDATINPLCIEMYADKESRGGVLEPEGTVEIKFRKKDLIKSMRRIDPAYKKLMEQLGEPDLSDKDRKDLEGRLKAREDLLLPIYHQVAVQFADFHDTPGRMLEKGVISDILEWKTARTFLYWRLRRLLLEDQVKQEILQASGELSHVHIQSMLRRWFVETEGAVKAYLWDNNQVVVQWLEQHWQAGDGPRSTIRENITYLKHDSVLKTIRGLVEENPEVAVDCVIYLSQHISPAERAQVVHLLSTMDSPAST

SMILES	IC50 [nM]
Cn1c(-c2ccc(CCC(=O)O)cc2)cc2ccc(S(=O)(=O)N[C@H]3CC[C@H](C(=O)N4CCC[C@@H]4C(F)(F)F)CC3)cc21 [Example 397, 3-(4-(1-methyl-6-(N-((1R,4r)-4-((R)-2-(trifluoromethyl)pyrrolidine-1-carbonyl)cyclohexyl)sulfamoyl)-1H-indol-2-yl)phenyl)propanoic acid]	< 10
Cn1c(-c2ccc(CCC(=O)O)cc2)cc2ccc(S(=O)(=O)N[C@H]3CC[C@H](C(=O)N4CCC[C@@H]4C(C)(C)C)CC3)cc21 [Example 400, 3-(4-(6-(N-((1R,4r)-4-((R)-2-tert-butylpyrrolidine-1-carbonyl)cyclohexyl)sulfamoyl)-1-methyl-1H-indol-2-yl)phenyl)propanoic acid]	< 10
CC1COCCN1C(=O)[C@H]1CC[C@H](NS(=O)(=O)c2ccc3c(C#N)c(C4CC4)n(C)c3c2)CC1 (stereo partly drawn) [Example 401, 3-cyano-2-cyclopropyl-1-methyl-N-((1r,4r)-4-(3-methylmorpholine-4-carbonyl)cyclohexyl)-1H-indole-6-sulfonamide]	25
C[C@H]1CCCCN1C(=O)[C@H]1CC[C@H](NS(=O)(=O)c2ccc3cc(-c4ccccc4)n(C)c3c2)CC1 [Example 405, 1-methyl-N-((1S,4r)-4-((S)-2-methylpiperidine-1-carbonyl)cyclohexyl)-2-phenyl-1H-indole-6-sulfonamide]	35
Cn1c(-c2ccccc2)cc2ccc(S(=O)(=O)N[C@H]3CC[C@H](C(=O)N4CCN(C5CC5)CC4)CC3)cc21 [Example 406, N-((1r,4r)-4-(4-cyclopropylpiperazine-1-carbonyl)cyclohexyl)-1-methyl-2-phenyl-1H-indole-6-sulfonamide]	985
COC[C@H]1CCCN1C(=O)[C@H]1CC[C@H](NS(=O)(=O)c2ccc3cc(-c4ccccc4)n(C)c3c2)CC1 [Example 408, N-((1R,4r)-4-((R)-2-(methoxymethyl)pyrrolidine-1-carbonyl)cyclohexyl)-1-methyl-2-phenyl-1H-indole-6-sulfonamide]	20

Next, values leading:

IC50 [nM]	SMILES
< 10	C[C@@H](OC(=O)C1(C)CCC(NS(=O)(=O)c2ccc3c(ccn3C)c2)CC1)c1ccccc1 (stereo partly drawn) [Example 398, (R)-1-phenylethyl 1-methyl-4-(1-methyl-1H-indole-5-sulfonamido)cyclohexanecarboxylate]
340	Cn1c(-c2ccc(CCC(=O)O)cc2)cc2ccc(S(=O)(=O)N[C@H]3CC[C@H](C(=O)N4CCC[C@H]4C(C)(C)C)CC3)cc21 [Example 399, 3-(4-(6-(N-((1S,4r)-4-((S)-2-tert-butylpyrrolidine-1-carbonyl)cyclohexyl)sulfamoyl)-1-methyl-1H-indol-2-yl)phenyl)propanoic acid]
130	Cn1c(-c2ccccc2)cc2ccc(S(=O)(=O)N[C@H]3CC[C@H](C(=O)N4CCCOCC4)CC3)cc21 [Example 402, N-((1r,4r)-4-(1,4-oxazepane-4-carbonyl)cyclohexyl)-1-methyl-2-phenyl-1H-indole-6-sulfonamide]
10	Cn1c(-c2ccccc2)cc2ccc(S(=O)(=O)N[C@H]3CC[C@H](C(=O)N4CCC[C@@H](C(C)(C)O)C4)CC3)cc21 [Example 403, N-((1R,4r)-4-((R)-3-(2-hydroxypropan-2-yl)piperidine-1-carbonyl)cyclohexyl)-1-methyl-2-phenyl-1H-indole-6-sulfonamide]
< 10	Cn1c(-c2ccccc2)cc2ccc(S(=O)(=O)N[C@H]3CC[C@H](C(=O)N4CCC[C@H](C(C)(C)O)C4)CC3)cc21 [Example 404, N-((1S,4r)-4-((S)-3-(2-hydroxypropan-2-yl)piperldine-1-carbonyl)cyclohexyl)-1-methyl-2-phenyl-1H-indole-6-sulfonamide]
< 10	COC(=O)C(C)(C)[C@@H](NC(=O)[C@H]1CC[C@H](NS(=O)(=O)c2ccc3cc(-c4ccccc4)n(C)c3c2)CC1)c1ccccc1 [Example 407, (S)-methyl 2,2-dimethyl-3-((1r,4S)-4-(1-methyl-2-phenyl-1H-indole-6-sulfonamido)cyclohexanecarboxamido)-3-phenylpropanoate]
